Reference: US10149907B2, “Combinations of a photosensitizer with a hydrogen sulfide donor, thioredoxin inhibitor or nitroxide for use in photodynamic therapy” (UNIVERSITY OF EXETER, priority 2014, dated 2018)
“Also recorded” adds a separate entry of the source. Read-outs that look alike come from different tables or passages of the source.

Key:
A431 cells [1] = assay: cells; assay type: cell-based; settings: for modes of cell death (early apoptosis, late apoptosis, necrosis) / effect on photodynamic cell killing compared to MAL and irradiation only: 1 mM MAL + SRHD 1 μM + irradiation; for modes of cell death (early apoptosis, late apoptosis, necrosis): compared to MAL and irradiation, FIG. 2, 4
Procedure: A431 cells (human epithelial squamous cell carcinoma cells) were seeded at a density of 1×10^6 cells/ml in T12.5 cm^2 flasks and incubated under 2% O2 for 48 h prior to treatment. After 24 h, the culture medium was replaced and the cells were placed back into the incubators under 2% O2. Following this incubation period, the culture medium was then removed and the flasks were washed with PBS. The cells were then treated with one of the SRHDs and incubated at 2% O2 for 2 h, after which MAL was added to a final concentration of 1 mM and the cells were incubated at 2% O2 for 3 h. This meant in total, the cells were treated with the SRHDs for 5 h.
Following this final incubation, cell death was analysed by annexin V-FITC and propidium iodide staining in conjunction with flow cytometry.
(§1) Cell death analysis by flow cytometry was carried out using the annexin V-FITC/propidium iodide protocol. This protocol allows a quantitative assessment of cell death, particularly specific modes of death, and involves staining the cells with fluorescein isothiocyanate-conjugated annexin A5 (annexin V-FITC) and propidium iodide (PI). Positive staining with annexin V-FITC alone indicates an apoptotic cell; positive staining with PI alone indicates a necrotic cell and dual staining of both annexin V and PI indicates a “late apoptotic” cell.
From each flask being assessed, the old medium was removed and placed into a corresponding individual 15 ml Falcon tube in order to collect any cells that may have detached from the surface. The flask was washed once with 1 ml PBS; also deposited in the Falcon tubes. Trypsin (500 μl) was added to each flask and the flasks were returned to the incubator with their caps loosened. Cell detachment was monitored using an inverted light microscope, until 50% of the cells were detached. The flasks were then lightly tapped to detach the remainder of the cells. Medium (2 ml) was added to each flask in order to neutralise the trypsin present before being removed and dispensed into the Falcon tubes. One more wash with PBS was carried out in order to ensure any cells left in the flasks were collected. The Falcon tubes were then centrifuged at 490 g for 3 min, forming a pellet at the bottom of the tube. The supernatant was discarded, and the cells were re-suspended in 5 ml of PBS, in order to wash them, before being centrifuged again at 490 g for 3 min. […] The Falcon tubes were placed on ice and in the dark for 15 min to allow annexin V staining. […] The samples were then ready to be assessed by flow cytometry.
(§2) The following flow cytometry process of sample detection was used. When using annexin V-FITC and PI, the detectors being used were FL1 (λmax=520 nm) and FL3 (λmax=670 nm), respectively, each with their own logarithmic histogram generated by the software. The intensity of the fluorescence detected is measured on a logarithmic scale on the x-axis and the y-axis represents the number of cells detected at a given fluorescence intensity. A plot of FL1/FL3 produces a 4-quadrant graph, where unstained and untreated cells are located in the bottom left quadrant, representing any cells found in the 1st decade of the single plot logarithmic histograms. Single staining with annexin V-FITC and PI are located in the bottom right and top left quadrant, respectively, and dual staining is located in the top right quadrant. These quadrants represent any cells detected above the 1st decade of the logarithmic histograms.

A431 cells [2] = settings: for cell viability, percentage of untreated control: 500 μM
Procedure: A431 cells were seeded at a density of 1×10^5 cells/ml in 96 well plates and incubated under 2% O2 for 48 h prior to treatment. After 24 h, the culture medium was replaced and the cells were placed back into the incubators under 2% O2. Following this incubation period, the culture medium was then removed and the plates were washed with PBS. The cells were then treated with 1 mM MAL in the absence or presence of one of the compounds of interest and then incubated again at 2% O2 for 3 h. For experiments carried out with SRHDs, this treatment step was carried out for 5 h at 2% O2. After treatment, the cells were washed with PBS, the culture medium was replaced and the cells were placed back under 2% O2 for 3 h. Following this final incubation, cell death was analysed using the resazurin viability assay.
Resazurin (7-hydroxy-3H-phenoxazin-3-one 0-oxide) is a weakly fluorescent blue dye used primarily in oxidation-reduction cell viability assays. Irreversible NADH-dependent reduction by the mitochondria in mammalian cells leads to the production of resorufin, a highly fluorescent product with excitation at 571 nm, emission at 585 nm.
A431 cells were seeded into 96 well plates at a density of 1.5*10^6 cells per ml (200 μl per well, 3*10^5 cells) and incubated for 24 h to adhere. Following incubation, the cells were washed and treated with the compound of interest for the relevant time, and then washed with PBS. […] After a 2 h incubation, the fluorescence of each well was measured (excitation: 571 nm, emission: 585 nm) using a fluorescence plate reader. Data from these experiments was plotted as a percentage of cell viability compared to untreated control cells.

A431 cells [3] = assay: Photodynamic cell killing in the presence of inhibitors of the thioredoxin antioxidant system or nitroxides (annexin V-FITC/propidium iodide flow cytometry); assay type: cell-based, human; settings: for cell death: 3 h, irradiation
Procedure: After this treatment, the cells were irradiated for 5 min (630 nm, 25 J/cm^2), then washed with PBS and the culture medium was replaced, after which the cells were placed back under 2% O2 and incubated for a further 3 h. Following this final incubation, cell death was analysed by annexin V-FITC and propidium iodide staining in conjunction with flow cytometry.
as §1
From each flask being assessed, the old medium was removed and placed into a corresponding individual 15 ml Falcon tube in order to collect any cells that may have detached from the surface. The flask was washed once with 1 ml PBS; also deposited in the Falcon tubes. Trypsin (500 μl) was added to each flask and the flasks were returned to the incubator with their caps loosened. Cell detachment was monitored using an inverted light microscope, until 50% of the cells were detached. The flasks were then lightly tapped to detach the remainder of the cells. Medium (2 ml) was added to each flask in order to neutralise the trypsin present before being removed and dispensed into the Falcon tubes. One more wash with PBS was carried out in order to ensure any cells left in the flasks were collected. The Falcon tubes were then centrifuged at 490 g for 3 min, forming a pellet at the bottom of the tube. The supernatant was discarded, and the cells were re-suspended in 5 ml of PBS, in order to wash them, before being centrifuged again at 490 g for 3 min. The wash stage was carried out once more before re-suspending the cell pellet in 95 μl of ice cold calcium (Ca^2+) buffer (50 mM HEPES, 700 mM NaCl, 12.5 mM CaCl2, pH 7.4) and adding 5 μl 12.5 μg/ml of annexin V-FITC (final concentration, 1.25 μg/ml), under reduced light conditions to prevent bleaching of the FITC. The Falcon tubes were placed on ice and in the dark for 15 min to allow annexin V staining. After 15 min, 860 μl of Ca^2+ buffer (10 mM Hepes adjusted to pH 7.4, 140 mM NaCl and 2.5 mM CaCl2) was added, followed by 40 μl of 1 mg/ml PI in water (final concentration, 0.04 mg/ml) to give a final volume of 1 ml. The samples were then ready to be assessed by flow cytometry.
as §2

A431 cells [4] = assay: Mitochondrial reactive oxygen species generation during photodynamic irradiation, MitoSOX flow cytometry; assay type: cell-based, human; settings: 3 hours, irradiated
Procedure: A431 cells were treated concurrently with AP39-C10 (10, 100 or 1000 nM) for 5 hours, MAL (1 mM) for 3 hours and MitoSOX (2.5 μM) for 1 hour, after which they were irradiated for 5 min (630 nm, 25 J/cm^2) and MitoSOX (mito-2-OH-E^+) fluorescence, indicative of mitochondrial oxidant production, was immediately analysed by flow cytometry. Results are set out in FIG. 23.
Mitochondria-targeted dihydroethidium (i.e. MitoSOX) was used to assess the production of mitochondrial reactive oxygen species (ROS) by PpIX photochemical reactions and to determine the effects of AP39-C10 on this process. All of the results are represented as a percentage of the untreated controls (100.0±8.5%). The fluorescence of the photoirradiated cells, which had been pre-treated with MAL, was 193.7±7.3% (p<0.001 c.f. untreated controls).

[5] = 1 mM MAL + SRHD 1 μM (5 h) + irradiation, 3 h post-irradiation
[6] = dark toxicity, without irradiation, SRHD 1 μM, 5 h, FIG. 1, 3

Molecule	cell death (A431 cells [1]; [5])	modes of cell death (early apoptosis, late apoptosis, necrosis) (A431 cells [1])	cell death (A431 cells [1]; [6])	cell viability, percentage of untreated control (A431 cells [2]; 5 hours, FIG. 15, 16)	also measured
NC(=S)c1ccc(OC(=O)CCCCCCCCCCC[P+](c2ccccc2)(c2ccccc2)c2ccccc2)cc1 [AP123-C12]	72.5±2.0%	less effect on early apoptosis, instead increasing late apoptosis and necrosis	12.7±3.0%	17.0±0.7%	
Oc1ccc(-c2cc(=S)ss2)cc1 [ADT-OH, 5-(4-hydroxyphenyl)-3H-1,2-dithiole-3-thione]	25.7±6%	no effect on the types of cell death observed compared to treatment with MAL and irradiation		76.7±1.3%	effect on photodynamic cell killing compared to MAL and irradiation only (A431 cells [1]): no statistically significant effect on photodynamic cell killing
aurothiomalate [ATM]					cell death (A431 cells [3]; 1 mM MAL + co-treatment 20 μM): 66.7±4.9%; potentiating effect on MAL photodynamic cell killing (A431 cells [3]; summary of Examples 2A, 3A): more robust potentiating effect; MitoSOX fluorescence, percentage of untreated cells (A431 cells [4]; MAL 1 mM + co-treatment 20 μM): 192.4±5.6%; tolerance (dark toxicity) (A431 cells [2]; 0.1-500 μM, 24 hours): well tolerated at all concentrations tested
CCC(C)SSc1ncc[nH]1 (stereo not drawn) [PX12, 2-[(1-Methylpropyl)dithio]-1H-imidazole]					cell death (A431 cells [3]; 1 mM MAL + co-treatment 10 μM): 70.5±4.5%; potentiating effect on MAL photodynamic cell killing (A431 cells [3]; summary of Examples 2A, 3A): more robust potentiating effect; MitoSOX fluorescence, percentage of untreated cells (A431 cells [4]; MAL 1 mM + co-treatment 10 μM): 211.4±17.6%; cell viability, percentage of untreated control (A431 cells [2]; 24 hours): 47.5±4.9%; concentration up to which well tolerated / no cytotoxicity (A431 cells [2]; 24 hours): ≤ 100 µM
O=C(CCCCCCCCCCC[P+](c1ccccc1)(c1ccccc1)c1ccccc1)Oc1ccc(-c2cc(=S)ss2)cc1 [AP39-C12]	51.6±3.2%		11.7±1.5%	13.3±1.8%	
NC(=S)c1ccc(OC(=O)CCCCCCC[P+](c2ccccc2)(c2ccccc2)c2ccccc2)cc1 [AP123-C8]	67.5±6.4%		13.2±3.1%	13.2±1.8%	
O=C(CCCCCCC[P+](c1ccccc1)(c1ccccc1)c1ccccc1)Oc1ccc(-c2cc(=S)ss2)cc1 [AP39-C8]	46.3±2.1%		14.9±2.3%	20.1±4.5%	
CC[PH](CC)(CC)[Au][S][C@@H]1O[C@H](COC(C)=O)[C@@H](OC(C)=O)[C@H](OC(C)=O)[C@H]1OC(C)=O [auranofin]					modes of cell death (A431 cells [3]): primarily increased necrotic cell death; also recorded: slightly increased late apoptotic cell death; also recorded: concentration-dependent increases in late apoptosis and necrosis, with little effect on early apoptosis; potentiating effect on MAL photodynamic cell killing (A431 cells [3]): more robust potentiating effect; concentration up to which well tolerated / no cytotoxicity (A431 cells [2]; human): ≤ 10 µM
NC(=S)c1ccc(O)cc1 [4-HTB, 4-hydroxythiobenzamide]	22.5±5.5%	no effect on the types of cell death observed compared to treatment with MAL and irradiation			effect on photodynamic cell killing compared to MAL and irradiation only (A431 cells [1]): no statistically significant effect on photodynamic cell killing; concentration up to which treatment was well tolerated (A431 cells [2]; 5 hours, range 0.1-500 μM): up to 500 μM
